# Where two headings read alike, the source gives them in different places.
# Tests used:
# [1] = test system: Key Broadleaf Weed and Crop Species; test: Post-emergent Test II herbicidal activity (Table 5); assay type: in vivo; details: post-emergence, 336 h, 14 days after application; for pest or weed control at 70 g/ha: application rate 70 g ai/ha; for pest or weed control at 140 g/ha: application rate 140 g ai/ha
# In short: (§1)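 Spray rates: a highest rate plus ½×, ¼×, ⅛×, 1/16×, all delivered at 187 L/ha to plants at the first–second true leaf stage. Readout is a visual percent injury score at 14 d, where 100 means complete kill.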
# [2] = test system: Key Grass and Sedge Weeds as well as Grass Crops; test: Post-emergent Test II herbicidal activity (Table 6); assay type: in vivo; details: post-emergence, 336 h; for pest or weed control at 70 g/ha: 70 g ai/ha; for pest or weed control at 140 g/ha: 140 g ai/ha
# In short: as §1
# [3] = ABUTH: velvetleaf (Abutilon theophrasti), read-out: Visual Growth Reduction (%) 14 Days After Application, ABUTH
# [4] = AMARE: redroot pigweed (Amaranthus retroflexus), read-out: Visual Growth Reduction (%) 14 Days After Application, AMARE
# [5] = BRSNN: oilseed-rape, canola (Brassica napus), read-out: Visual Growth Reduction (%) 14 Days After Application, BRSNN
# [6] = CHEAL: lambsquarters (Chenopodium album), read-out: Visual Growth Reduction (%) 14 Days After Application, CHEAL
# [7] = EPHHL: wild poinsettia (Euphorbia heterophylla), read-out: Visual Growth Reduction (%) 14 Days After Application, EPHHL
# [8] = HELAN: sunflower (Helianthus annuus), read-out: Visual Growth Reduction (%) 14 Days After Application, HELAN
# [9] = CYPES: yellow nutsedge (Cyperus esculentus), read-out: Visual Growth Reduction (%) 14 Days After Application, CYPES
# [10] = DIGSA: crabgrass (Digitaria sanguinalis), read-out: Visual Growth Reduction (%) 14 Days After Application, DIGSA
# [11] = ECHCG: barnyardgrass (Echinochloa crus-galli), read-out: Visual Growth Reduction (%) 14 Days After Application, ECHCG
# [12] = ORYSA: rice (Oryza sativa), crop, read-out: Visual Growth Reduction (%) 14 Days After Application, ORYSA
# [13] = SETFA: giant foxtail (Setaria faberi), read-out: Visual Growth Reduction (%) 14 Days After Application, SETFA
# [14] = SORVU: grain sorghum (Sorghum vulgare), read-out: Visual Growth Reduction (%) 14 Days After Application, SORVU
# [15] = TRZSS (wheat, Triticum aestivum), crop, read-out: Visual Growth Reduction (%) 14 Days After Application, TRZSS
# [16] = ZEAMX: maize, corn (Zea mays), crop, read-out: Visual Growth Reduction (%) 14 Days After Application, ZEAMX
compound,measurement,setting,value
"C=Cc1c(C(=O)OC)nc(-c2ccc(Cl)c(F)c2)c(F)c1N [Compound 215, methyl 4-amino-6-(4-chloro-3-fluorophenyl)-5-fluoro-3-vinylpicolinate]",pest or weed control at 70 g/ha,[1]; [3],95 to 100%
same,pest or weed control at 140 g/ha,[1]; [3],95 to 100%
same,pest or weed control at 70 g/ha,[1]; [4],95 to 100%
same,pest or weed control at 140 g/ha,[1]; [4],95 to 100%
same,pest or weed control at 70 g/ha,[1]; [5],95 to 100%
same,pest or weed control at 140 g/ha,[1]; [5],95 to 100%
same,pest or weed control at 70 g/ha,[1]; [6],95 to 100%
same,pest or weed control at 140 g/ha,[1]; [6],95 to 100%
same,pest or weed control at 70 g/ha,[1]; [7],95 to 100%
same,pest or weed control at 140 g/ha,[1]; [7],95 to 100%
same,pest or weed control at 70 g/ha,[1]; [8],95 to 100%
same,pest or weed control at 140 g/ha,[1]; [8],95 to 100%
same,pest or weed control at 70 g/ha,"[1]; VIOTR: wild pansy (Viola tricolor), read-out: Visual Growth Reduction (%) 14 Days After Application, VIOTR",0 to 29%
same,pest or weed control at 70 g/ha,[2]; [9],95 to 100%
same,pest or weed control at 140 g/ha,[2]; [9],95 to 100%
same,pest or weed control at 70 g/ha,[2]; [10],0 to 29%
same,pest or weed control at 140 g/ha,[2]; [10],0 to 29%
same,pest or weed control at 70 g/ha,[2]; [11],0 to 29%
same,pest or weed control at 140 g/ha,[2]; [11],95 to 100%
same,pest or weed control at 70 g/ha,[2]; [12],0 to 29%
same,pest or weed control at 140 g/ha,[2]; [12],0 to 29%
same,pest or weed control at 70 g/ha,[2]; [13],0 to 29%
same,pest or weed control at 140 g/ha,[2]; [13],0 to 29%
same,pest or weed control at 70 g/ha,[2]; [14],45 to 59%
same,pest or weed control at 140 g/ha,[2]; [14],60 to 74%
same,pest or weed control at 70 g/ha,[2]; [15],0 to 29%
same,pest or weed control at 140 g/ha,[2]; [15],0 to 29%
same,pest or weed control at 70 g/ha,[2]; [16],30 to 44%
same,pest or weed control at 140 g/ha,[2]; [16],45 to 59%

# — patent US9113629B2, “4-amino-6-(4-substituted-phenyl)-picolinates and 6-amino-2-(4-substituted-phenyl)-pyrimidine-4-carboxylates and their use as herbicides” (DOW AGROSCIENCES LLC, priority 2013, dated 2015)
